Read-outs that look alike come from different tables or passages of the source.
Columns and labels:
HL-60 = assay: Growth inhibition (IC50) in leukaemic HL-60 cells (Experiment 7); format: cell-based; conditions: Homo sapiens, HL-60, 24 Stunden
Source text: (§1) Hämatologische Zellen (CEM, HL-60) wurden für 24 Stunden mit unterschiedlichen Dosen verschiedener Triazenverbindungen inkubiert, um die IC50 zu bestimmen.

CEM = assay: Growth inhibition (IC50) in leukaemic CEM cells (Experiment 7); format: cell-based; conditions: Homo sapiens, CCRF-CEM, 24 Stunden
Source text: as §1

[1] = Formulation trials for intravenous application (Experiment 8); format: physicochemical
Procedure: Um die Testergebnisse aus Experiment 7 in einem in-vivo Xenograft Modell zu bestätigen, wurden Formulierungsversuche mit Verbindungen nach Beispiel 1 sowie der Verbindung nach Beispiel 2 aus DE 1 793 1 15, als den wirksamsten Verbindungen aus Experiment 7, unternommen.
15mg der Verbindung nach Beispiel 1 werden in 30µL DMSO ([…]) gelöst. Diese Stocklösung wird in 270µL 1 M Na2CO3 Lösung gegeben und nur leicht geschwenkt, nicht aber mittels Ultraschallbad behandelt.
Gleichermaßen sollte eine Formulierung für Verbindungen nach Beispiel 2 aus DE 1 7 93 1 15 hergestellt werden. Hier wurden 15µL der Verbindung nach Beispiel 2 vorgelegt. Bei einer Dichte von 1,08g/ml entsprach dies 16,2mg der Verbindung nach Beispiel 2. Dazu wurden 32,4µL DMSO gegeben. […] Sodann wurden 90µL einer frisch hergestellten 1 molaren Na2CO3 Lösung vorgelegt und 10µL der Lösung der Verbindung nach Beispiel 2 hinzugegeben. […] Auch mittels Ultraschallbad konnte keine Auflösung des erzeugten Niederschlags herbeiführen.

MDA-MB231 = assay: IC50 of triazenes in MDA-MB231 cell line (Experiment 3); format: cell-based; conditions: Homo sapiens, MDA-MB-231; IC50 für die MDA-MB231 gemäß Experiment 3; used as incubation concentration for PBC
Source text: Die nachfolgenden Experimente 3 und 4 zeigen, dass die erfindungsgemäßen neuen Triazenverbindungen eine vergleichbare Anti-Tumorwirkung (IC50) in zahlreichen Krebszelllinien wie der HepG2 (Leber), HCT8 (Darm), DU-145 (Prostata), MCF-7 und MDA-MB-231 (Brust) und MiaPaca-2 (Bauchspeicheldrüse) bei bis zu 100fach niedrigeren Konzentrationen zeigen als vergleichbare Triazene wie DTIC, TMZ oder Substanzen wie sie in der WO 2009/004060 und der DE 1 7931 1 5 beschrieben sind.
Verschiedene Triazene wie erfindungsgemäße Verbindungen nach Beispiel 1, DTIC, TMZ sowie Verbindungen nach Präparat 2 und 5 (entsprechend Verbindungen nach Präparat 2 und Beispiel 2a jeweils der WO 2009/004060) sowie Verbindungen nach Beispiel 33 der DE1793115 wurden in DMSO bzw. Wasser gelöst.
(§2) Periphäre Blutzellen (PBC) werden jeweils mit der IC50 für die MDA-MB231 gemäß Experiment 3 der entsprechenden Substanzen inkubiert. Es wird gezeigt, dass die erfindungsgemäße Verbindung nach Beispiel 1 nicht mehr DNA-Schädigungen in den PBC erzeugt als eine Negativkontrolle, […]

[2] = test system: periphere Blutzellen (PBC); assay: Cell damage (apoptosis rate, CaspACE assay, flow cytometry) in peripheral blood cells (Experiment 5); format: cell-based; conditions: for % Zellen in Apoptose: Versuch 1 Lymphozyten, 24 Stunden incubation at the IC50 for MDA-MB231
Source text: Um die therapeutische Breite der neuen Substanzen abschätzen zu können, wurden periphere Blutzellen (PBC) und hämatologische Zellen (Nalm-6; CEM und U-937) für 24 Stunden mit unterschiedlichen Dosen verschiedener Triazenverbindungen bzw. Doxorubicin als positive Kontrolle für die hämatologischen Zelllinien inkubiert. Das Maß der Zellschädigung (Apoptoserate) wurde mittels CaspACE™ Assay (am Durchflusszytometer) bestimmt.
Verschiedene Triazene wie erfindungsgemäße Verbindungen nach Beispiel 1, TMZ sowie Verbindungen nach Präparat 2 und 5 (entsprechend Verbindungen nach Präparat 2 und Beispiel 2a jeweils der WO 2009/004060) wurden in DMSO bzw. Wasser entsprechend den Angaben in Abbildung 22 gelöst.
as §2

MCF-7-Zellen = assay: Intracellular metabolisation of triazenes in MCF-7 cell culture (Experiment 1); format: in vitro ADME; conditions: MCF-7, 100nmol/ml, 100% FCS, binnen 20 Stunden
Procedure: Es wird gezeigt, dass Verbindungen nach Beispiel 1 schneller und in größerer Menge intrazellulär metabolisiert werden als die als Vergleichssubstanzen eingesetzten Verbindungen nach Präparat 2 und 5 (entsprechend Verbindungen nach Präparat 2 und Beispiel 2a jeweils der WO 2009/004060).
Die getesteten Verbindungen wurden wie folgt gelöst: • Erfindungsgemäße Verbindung: • Beispiel 1 : in 20 mg/ml DMSO
Vergleichssubstanzen: • Präparat 2: in 50mg/ml DMSO, • Präparat 5: in 50mg/ml Wasser.
Alle drei Substanzen wurden äquimolar in einer Dosis von 100nmol/ml auf 1 x 10^7 HepG2 bzw. MCF-7-Zellen gegeben. Als Zellkulturmedium wurde 100% fötales Kälberserum (FCS) verwendet. Für den Versuch wurde der Gehalt aus Ausgangsprodukt und Metaboliten im Zellüberstand nach 1, 3 und 6 (HepG2) bzw. 1,3 und 20 Stunden (MCF-7) Inkubationszeit ermittelt. Alle drei Substanzen zeigten in Kontrollversuchen mit 100% FCS nach 40 Stunden metabolische Stabilität.

[3] = mean of Exp. 1-5, read-out: IC50 Mittelwert
[4] = mean of Exp. 1-4, read-out: IC50 Mittelwert

CN(C)N=Nc1ccc(C(=O)c2ccccc2)cc1 [Beispiel 2 der DE 1793115]
IC50 (HL-60; [3]): 10 µM
IC50 (HL-60; read-out: IC50 Exp. 1): 8.69 µM
IC50 (HL-60; read-out: IC50 Exp. 2): 11.8 µM
IC50 (HL-60; read-out: IC50 Exp. 3): 11.1 µM
IC50 (HL-60; read-out: IC50 Exp. 4): 9.47 µM
IC50 (HL-60; read-out: IC50 Exp. 5): 9.08 µM
IC50 (CEM; [4]): 10 µM
IC50 (CEM; read-out: IC50 Exp. 1): 10.3 µM
IC50 (CEM; read-out: IC50 Exp. 2): 10.3 µM
IC50 (CEM; read-out: IC50 Exp. 3): 8.69 µM
IC50 (CEM; read-out: IC50 Exp. 4): 10.7 µM
Löslichkeit in DMSO ([1]; 16,2mg in 32,4µL DMSO): löste sich vollständig
Löslichkeit in der Formulierung ([1]; DMSO stock solution given into 1 M Na2CO3 Lösung): Sofort fiel weißer Niederschlag aus
stabile und verträgliche Formulierung ([1]; Lösungsmittel wie Cremophor, PEG400, Tween80, Poloxamer): nicht erreicht werden konnte
IC50 (MDA-MB231): 25.5 µM
% Zellen in Apoptose [2]: 6,570%

CN(C)/N=N/c1[nH]cnc1C(N)=O [Dacarbazine]
IC50 (MDA-MB231): 625 µM
% Zellen in Apoptose [2]: 8,260%

COc1cccc2c1C(=O)c1c(O)c3c(c(O)c1C2=O)C[C@@](O)(C(=O)CO)C[C@@H]3O[C@H]1C[C@H](N)[C@H](O)[C@H](C)O1 [Doxorubicin]
IC50 (HL-60; read-out: IC50 Exp. 1): 0.0012 µM
IC50 (HL-60; read-out: IC50 Exp. 2): 0.00116 µM
IC50 (HL-60; read-out: IC50 Exp. 3): 0.000662 µM
IC50 (HL-60; read-out: IC50 Exp. 4): 0.00131 µM
IC50 (HL-60; read-out: IC50 Exp. 5): 0.00134 µM
IC50 (CEM; [4]): 8510 µM
IC50 (CEM; read-out: IC50 Exp. 1): 6810 µM
IC50 (CEM; read-out: IC50 Exp. 2): 5890 µM
IC50 (CEM; read-out: IC50 Exp. 3): 9940 µM
IC50 (CEM; read-out: IC50 Exp. 4): 114 µM

CN(C)N=Nc1ccc(C(=O)c2ccc(OCCC(=O)NCC(=O)O)cc2)cc1 [Präparat 5]
IC50 (HL-60; [3]): 1190 µM
IC50 (HL-60; read-out: IC50 Exp. 1): 829 µM
IC50 (HL-60; read-out: IC50 Exp. 2): 879 µM
IC50 (HL-60; read-out: IC50 Exp. 3): 1530 µM
IC50 (HL-60; read-out: IC50 Exp. 4): 1510 µM
IC50 (CEM; [4]): 735 µM
IC50 (CEM; read-out: IC50 Exp. 1): 754 µM
IC50 (CEM; read-out: IC50 Exp. 2): 879 µM
IC50 (CEM; read-out: IC50 Exp. 3): 678 µM
IC50 (CEM; read-out: IC50 Exp. 4): 628 µM
metabolisiert (MCF-7-Zellen): ~30%

Cn1nnc2c(C(N)=O)ncn2c1=O [Temozolomide, 4-methyl-5-oxo-2,3,4,6,8-pentazabicyclo [4.3.0] nona-2,7,9-triene-9-carboxamide]
IC50 (MDA-MB231): 515 µM
Zellschädigung (Apoptoserate) vs. Negativkontrolle ([2]; PBC, 24 stündige Inkubation): Anstieg der Apoptoserate
% Zellen in Apoptose [2]: 15,320%

From patent EP2557075A1, “New triazene compounds for treating cancer” (Trin Therapeutics GmbH, priority 2011, dated 2013)
